# Assay results taken from patent publication US8143212B2 (Vicuron Pharmaceuticals Inc., priority 2002, dated 2012).
# Where two headings read alike, the source gives them in different places.
# Experiments:
# [1] = tested on: Gram-positive pathogen; assay: Phase II SSTI trial: microbiological response; assay type: in vivo, human; conditions: for Success Rate by Pathogen: Microbiologically ITT Population at FU; for eradication/presumed eradication rate, all organisms: FU assessment
# Experimental: There were 62 patients randomized into the study; all received at least one dose of study medication. Four study populations were evaluated for safety and efficacy and were defined as follows: The intent-to-treat (ITT) population included all patients who received at least one dose of study drug (all randomized study subjects).
# Microbiological outcome, a secondary efficacy variable, was assessed in the subpopulation of patients who had microbiologically documented SSTI (i.e., at least one identified baseline pathogen). A microbiologic response was assessed for each Gram-positive pathogen identified at baseline (i.e., eradication, presumed eradication, persistence, presumed persistence). For patients for whom follow-up cultures were not performed, the microbiologic responses for baseline pathogens were presumed on the basis of the clinical response. Microbiologic response by patient at the EOT and FU visits was graded as success (i.e., all Gram-positive organisms eradicated or presumed eradicated) or failure (i.e., at least one Gram-positive organism persisted or presumed to have persisted, multiple pathogens with partial eradication). At both the EOT and FU visits, colonization and superinfection were assessed. At the FU visit, a patient's bacteriological response could also include recurrence.
# [2] = human, in vivo
# Text: (§1) The study enrolled otherwise healthy subjects with mild, moderate, or severe hepatic impairment (Child-Pugh scores 5 to 6, 7 to 9, and 10 to 15, respectively) and matched control subjects with normal hepatic function.
# [3] = target: human albumin (Homo sapiens, UniProt P02768); conditions: pH 7.4
# Experimental: Integrated heat effects, after correction for heats of dilution, were analyzed by non-linear regression using a simple single-site binding model with the standard Microcal ORIGIN software package. Raw data (μcal/sec) for each injection were integrated to give the total heat effect per addition, then divided by amount of injectant to give kcal/mole of injectant. The same integration was applied for control dilution effects, and this was subtracted from the actual titration data. This provided a differential of the binding curve in which the extent of binding is proportional to the total heat liberated (or absorbed). This was then analyzed by non-linear regression methods in terms of various standard binding models. The simplest model assumes simple non-competitive binding equilibrium, and gives three parameters:
# [4] = rat, in vivo
# Experimental: (§2) Excreta and more than 40 different tissues were collected through 70 days post-administration, and the tissue distribution and pharmacokinetics of drug-derived radioactivity were determined.
# Following dose administration, urine and feces were collected at 24 hour intervals to 14, 36, and 70 days after the dose (3 rats/final collection time). Water and methanol cage washes were also collected. Carcasses were analyzed at the end of the collection period. All samples were analyzed for total radioactivity content by liquid scintillation counting (LSC).
# [5] = rat, in vivo; remark: listed apart in the source
# Experimental: as §2
# Rats (3 per time-point) were euthanized at 12, 24, 48, 72, 96, 120, 144, 168, 336, 840, 1176 and 1680 hours post dose for collection of blood, plasma, and tissues (including carcass). All samples were analyzed by LSC.
# As part of the QTD studies, bile samples were collected from bile duct cannulated rats (4 animals) through 384 h (16 days) post-dose.
# [6] = Plasma pharmacokinetics in thigh-infected neutropenic mice; conditions: intraperitoneal
# Experimental: Neutropenia in this and all other studies was produced by injections of cyclophosphamide, 150 mg/kg 4 days prior to study, 100 mg/kg 1 day prior to study and 100 mg/kg every 48 h after start of infection until end of study. Neutrophil counts remained less than 100/mm^3 for the duration of study. Doses of 2.5, 5, 10, 20; 40, and 80 mg/kg were studied. Drug was administered by intraperitoneal injection of 0.2 ml volume. Blood was removed from groups of three mice by retroorbital aspiration into heparinized capillary tubes at 0.5, 1, 2, 4, 6, 24, 48, 72, and 96 hours after dosing. […] AUC was calculated by the trapezoidal rule from mean concentrations.
# [7] = Pharmacokinetics and safety in subjects with hepatic impairment (VER001-12); conditions: human, in vivo, intravenous, 1000 mg Day 1 and 500 mg Day 8, Mean (±SD)
# Text: as §1
# [8] = Pharmacokinetics and safety in subjects with renal impairment / ESRD (VER001-3, -11, -13); conditions: for half-life: human, plasma, intravenous
# Experimental: The peak concentrations (Cmax) were obtained directly from the observed data. The area under the plasma concentration-time curve (AUC) were calculated using the linear trapezoidal rule.
# Clinical Study VER001-13 examined subjects with mild and moderate renal impairment and Clinical Study VER001-1 examined subjects with severe renal impairment and subjects with end-stage renal disease (ESRD). Matched control subjects were enrolled in all studies. […] Subjects with ESRD were dependent on dialysis through the course of the study (3 times weekly).
# Chain of human albumin (P02768 25-609): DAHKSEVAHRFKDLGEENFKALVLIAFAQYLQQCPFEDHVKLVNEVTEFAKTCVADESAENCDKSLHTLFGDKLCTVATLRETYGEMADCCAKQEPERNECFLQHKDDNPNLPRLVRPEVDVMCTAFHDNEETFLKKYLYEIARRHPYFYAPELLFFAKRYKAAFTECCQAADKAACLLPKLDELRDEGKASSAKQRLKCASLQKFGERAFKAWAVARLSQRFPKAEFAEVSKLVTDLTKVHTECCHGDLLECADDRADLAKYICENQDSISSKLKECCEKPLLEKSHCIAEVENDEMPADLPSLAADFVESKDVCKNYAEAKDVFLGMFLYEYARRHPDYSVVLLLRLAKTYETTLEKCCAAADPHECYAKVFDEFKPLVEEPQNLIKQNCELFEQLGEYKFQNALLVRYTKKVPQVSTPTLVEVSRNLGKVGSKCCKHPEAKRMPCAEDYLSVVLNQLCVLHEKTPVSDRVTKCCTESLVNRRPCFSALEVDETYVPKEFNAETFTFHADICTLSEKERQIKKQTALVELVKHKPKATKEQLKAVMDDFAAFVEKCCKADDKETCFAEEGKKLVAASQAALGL
smiles,measurement,setting,value
CN[C@H]1C(=O)N[C@@H]2Cc3ccc(cc3)Oc3cc4cc(c3O[C@@H]3O[C@H](C(=O)O)[C@@H](O)[C@H](O)[C@H]3NC(=O)CCCCCCCCC(C)C)Oc3ccc(cc3Cl)[C@@H](O)[C@@H]3NC(=O)[C@H](NC(=O)[C@@H]4NC(=O)[C@@H](NC2=O)c2cc(cc(O)c2Cl)Oc2cc1ccc2O)c1ccc(O)c(c1)-c1c(O[C@H]2O[C@H](CO)[C@@H](O)[C@H](O)[C@@H]2O)cc(O)cc1[C@@H](C(=O)NCCCN(C)C)NC3=O [Dalbavancin],S. aureus eradication rate,"[1]; FU, single-dose",50%
same,S. aureus eradication rate,"[1]; FU, two-dose",90%
same,Microbiologic Success Rate,"[1]; MITT population, EOT, Single-dose (1100 mg)",5/14 (35.7) %
same,Microbiologic Success Rate,"[1]; MITT population, EOT, Two-dose (1000/500 mg)",10/13 (76.9) %
same,Microbiologic Success Rate,"[1]; MITT population, FU, Single-dose (1100 mg)",3/14 (21.4) %
same,Microbiologic Success Rate,"[1]; MITT population, FU, Two-dose (1000/500 mg)",9/13 (69.2) %
same,MRSA eradication rate,"[1]; MITT population, single-dose",50%
same,MRSA eradication rate,"[1]; MITT population, two-dose",80%
same,Success Rate by Pathogen,"[1]; Methicillin-resistant S. aureus, Single-dose (1100 mg)",3/6 (50%)
same,Success Rate by Pathogen,"[1]; Methicillin-resistant S. aureus, Two-dose (1000/500 mg)",4/5 (80%)
same,Microbiologic Success Rate,"[1]; Microbiologically evaluable population, EOT, Single-dose (1100 mg)",5/13 (38.5) %
same,Microbiologic Success Rate,"[1]; Microbiologically evaluable population, EOT, Two-dose (1000/500 mg)",8/11 (72.7) %
same,Microbiologic Success Rate,"[1]; Microbiologically evaluable population, FU, Single-dose (1100 mg)",3/11 (27.3) %
same,Microbiologic Success Rate,"[1]; Microbiologically evaluable population, FU, Two-dose (1000/500 mg)",8/11 (72.7) %
same,Success Rate by Pathogen,"[1]; Total organisms, Two-dose (1000/500 mg)",14/16 (87.5%)^
same,microbiologic success rates,"[1]; both visits (EOT and FU), single dose",< 40%
same,Microbiologic Success Rate,"[1]; microbiologically-evaluable population, EOT, single-dose",38.5%
same,Microbiologic Success Rate,"[1]; microbiologically-evaluable population, EOT, two-dose",72.7%
same,"eradication/presumed eradication rate, all organisms","[1]; microbiologically-evaluable population, single-dose",58%
same,"eradication/presumed eradication rate, all organisms","[1]; microbiologically-evaluable population, two-dose",92%
same,Microbiologic Success Rate,"[1]; microbiologically-evaluable population, FU, single-dose",27.3%
same,Microbiologic Success Rate,"[1]; microbiologically-evaluable population, FU, two-dose",72.7%
same,tolerability,[2],well tolerated
same,Calculated percent Binding,[3]; 1 μM,98.8%
same,Calculated percent Binding,[3]; 10 μM,98.8%
same,Calculated percent Binding,[3]; 100 μM,98.7%
same,Calculated percent Binding,[3]; 165 μM,98.6%
same,Calculated percent Binding,[3]; 250 μM,98.5%
same,Calculated percent Binding,[3]; 500 μM,98.0%
same,dose remaining in the carcass,"[4]; male, Sprague-Dawley, 1680 h",4.5 % of the dose
same,share of excreted radioactivity eliminated in feces,"[4]; iv, 20 mg/kg",⅓
same,share of excreted radioactivity eliminated in urine,"[4]; iv, 20 mg/kg",⅔
same,blood to plasma ratio of drug-derived radioactivity,"[5]; male, Sprague-Dawley",< 1
same,recovered radioactivity in any single tissue,"[5]; male, Sprague-Dawley, 5 days",< 5 % of the dose
same,administered radioactivity retained in carcass,"[5]; male, Sprague-Dawley, 70 days",2.34%
same,time to maximum concentration (Cmax) in most tissues,[5],≤ 24 h
same,time of peak levels,[6],4 to 6 h
same,half-life,"[7]; t1/2, Mild Hepatic Impairment (N = 6)",13.5 days
same,half-life,"[7]; t1/2, Moderate Hepatic Impairment (N = 6)",13.3 days
same,half-life,"[7]; t1/2, Normal Hepatic Function (N = 9)",13.4 days
same,half-life,"[7]; t1/2, Severe Hepatic Impairment (N = 5)",13.4 days
same,half-life,"[8]; 500 mg, t1/2, ESRD Postdialysis (N = 3), VER001-11, single dose 500 mg",14.5 days
same,half-life,"[8]; 500 mg, t1/2, ESRD Predialysis (N = 3), VER001-11, single dose 500 mg",15.7 days
same,half-life,"[8]; 500 mg, t1/2, Normal Renal Function (N = 6), VER001-11, single dose 500 mg",13.9 days
same,half-life,"[8]; 500 mg, t1/2, Severe Renal Impairment (N = 6), VER001-11, single dose 500 mg",18.9 days
same,half-life,"[8]; 1000 mg, t1/2, Mild Renal Impairment (N = 6), VER001-13, single dose 1000 mg",16.2 days
same,half-life,"[8]; 1000 mg, t1/2, Moderate Renal Impairment (N = 6), VER001-13, single dose 1000 mg",18 days
same,half-life,"[8]; 1000 mg, t1/2, Normal Renal Function (N = 9), VER001-13, single dose 1000 mg",17.4 days
same,half-life,"[8]; 1000 mg, t1/2, Severe Renal Impairment (N = 4), VER001-11, single dose 1000 mg",19.5 days
same,half-life,"[8]; 1120 mg, t1/2, Normal Renal Function (N = 3), VER001-2, single dose 1120 mg",6.21 days
same,increase in concentrations vs normal renal function,"[8]; severe renal impairment, through the first week post-dose",≤ 40%
